Values quoted from earlier work as cited in patent US20150290439A1, “METHODS FOR BILATERAL CENTRAL AUTONOMIC NEUROMODULATION” (priority 2014, published 2015).

Legend:
[1] = reason for discontinuation
[2] = biological target: calcitonin gene-related peptide receptor (Homo sapiens, UniProt O60894+Q16602)
[3] = not given; remark: listed apart in the source

calcitonin gene-related peptide receptor, sequence (Q16602 23-461): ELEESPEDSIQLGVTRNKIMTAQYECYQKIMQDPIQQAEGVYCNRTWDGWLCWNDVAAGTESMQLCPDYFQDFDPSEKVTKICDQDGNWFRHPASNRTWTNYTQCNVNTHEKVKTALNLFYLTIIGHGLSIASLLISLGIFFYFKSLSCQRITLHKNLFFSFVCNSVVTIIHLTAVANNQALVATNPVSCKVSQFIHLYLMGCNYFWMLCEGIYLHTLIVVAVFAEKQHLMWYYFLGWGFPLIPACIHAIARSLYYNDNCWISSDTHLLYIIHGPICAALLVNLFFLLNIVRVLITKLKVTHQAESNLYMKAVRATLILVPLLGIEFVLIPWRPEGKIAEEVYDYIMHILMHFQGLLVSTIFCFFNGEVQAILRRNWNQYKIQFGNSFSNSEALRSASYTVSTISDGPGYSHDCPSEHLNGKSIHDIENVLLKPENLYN
calcitonin gene-related peptide receptor, sequence (O60894 27-148): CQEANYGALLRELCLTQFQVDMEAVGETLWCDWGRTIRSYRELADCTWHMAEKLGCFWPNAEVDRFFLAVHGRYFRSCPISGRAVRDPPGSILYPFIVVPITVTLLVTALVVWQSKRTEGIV

## N[C@@H]1c2cccnc2[C@H](OC(=O)N2CCC(n3c(=O)[nH]c4ncccc43)CC2)CC[C@H]1c1cccc(F)c1F [BMS-927711]
600 mg
  efficacy of the highest tested dose: no additional benefit over the doses of 75 mg and 150 mg
Phase 2b, acute migraine
  secondary endpoints versus placebo: most (and sometimes all) doses were superior to placebo
Acute dosing
  tolerability: placebo-like
All doses, compared with sumatriptan, study not powered for direct comparisons
  primary efficacy endpoint: proportion of pain-free subjects at 2 hours post dose: numerically inferior to sumatriptan
Doses up to 300 mg
  efficacy as a function of dose: increased up to the dose of 75 mg when a plateau effect seemed to have been reached for doses between 75 mg and 300 mg
In the trial
  serious adverse events: No serious adverse event was reported
Most effective doses
  photophobia and phonophobia: significantly improved
  secondary endpoints versus sumatriptan: numerically superior to sumatriptan
Single dose
  efficacy of a single dose: has been demonstrated

## O=C(CN1C(=O)C2(CCCC2)NC[C@H]1c1cc(F)cc(F)c1)Nc1ccc2c(c1)C[C@@]1(C2)C(=O)Nc2ncccc21 [MK-3207]
[1]
  liver toxicity: concerns of liver toxicity
[2]
  potency relative to telcagepant: significantly more potent than telcagepant

## O=C(N[C@@H]1CC[C@@H](c2cccc(F)c2F)CN(CC(F)(F)F)C1=O)N1CCC(n2c(=O)[nH]c3ncccc32)CC1 [Telcagepant]
[1]
  liver toxicity: concerns of liver toxicity after frequent use

## Cc1cc(C[C@@H](OC(=O)N2CCC(N3CCc4ccccc4NC3=O)CC2)C(=O)N2CCC(N3CCOCC3)CC2)cc(C)c1O [BI44370A]
[3]
  efficacy in Phase 2 clinical study: efficacy demonstrated
